Measured values as given in patent US7402424B2, “Spectroscopic pH measurement at high-temperature and/or high-pressure” (Schlumberger Technology Corporation, priority 2006, dated 2008).
Read-outs that look alike come from different tables or passages of the source.

Legend:
[1] = Molar absorptivity ε of acid and base forms of reagents at 570 nm and 445 nm; assay type: physicochemical; settings: for ε at 445 nm (λ1), Acid / ε at 570 nm (λ2), Acid: acid form; for ε at 445 nm (λ1), Acid / ε at 445 nm (λ1), Base / ε at 570 nm (λ2), Base: in M-1·cm-1 (unit assumed); for ε at 445 nm (λ1), Base / ε at 570 nm (λ2), Base: base form (sodium salt of the reagent)
[2] = pKa of reagents (reagent properties used in the model of FIG. 2a); assay type: physicochemical; settings: reagent property used in the model of FIG. 2a

pKa ([2]; read-out: pKa)	SMILES	ε at 445 nm (λ1), Acid [1]	ε at 570 nm (λ2), Acid [1]	ε at 445 nm (λ1), Base [1]	ε at 570 nm (λ2), Base [1]	pKa [2]
	O=S1(=O)OC(c2cc(Br)c(O)c(Br)c2)(c2cc(Br)c(O)c(Br)c2)c2ccccc21 [Bromophenol Blue]	21711	378 M⁻¹ cm⁻¹	1981	46859	4.11
	O=S1(=O)OC(c2ccc(O)c(Cl)c2)(c2ccc(O)c(Cl)c2)c2ccccc21 [Chlorophenol Red]	18136	58 M⁻¹ cm⁻¹	1985	54247	6.11
7.79	O=S1(=O)OC(c2ccc(O)cc2)(c2ccc(O)cc2)c2ccccc21 [Phenol Red]					
